Test results as given in patent publication US20250369974A1, “METHOD FOR MONITORING AND PREVENTING CLINICALLY SIGNIFICANT KETONE LEVELS IN PATIENTS RECEIVING DICHLOROACETATE CO-ADMINISTERED WITH A CARBOHYDRATE RESTRICTED DIET” (SAOL INTERNATIONAL DEVELOPMENT LTD., priority 2024, published 2025).
Like-named read-outs stand apart in the source and are kept apart here.

What was measured:
[1] = test system: GSTZ1 haplotype carriers; conditions: cited from earlier work
[2] = test system: patients with Pyruvate Dehydrogenase Complex Deficiency (PDCD); assay: Phase III double-blind, placebo-controlled crossover study with open label period: ObsROmotor, GHA, seizures, observer survey; type: in vivo, human
Protocol: (§1) A double-blind period (Phase A) and an open label period (Phase B) was performed in patients 6 months through 17 years of age with Pyruvate Dehydrogenase Complex Deficiency (PDCD) (n=34). Patients receiving DCA were dose-stratified according to GSTZ1 genotype. DCA was dosed orally (oral, nasogastric tube, or gastric tube route) at either 12.5 mg/kg (fast metabolizers) or 6.25 mg/kg (slow metabolizers), every 12 hours. Twenty-seven (27) of 34 patients (79%), were fast metabolizers.
The drug product is a clear, colorless solution.
The primary efficacy outcome was assessed using an observer reported outcome that measures motor function, referred to as the ObsROmotor. The ObsROmotor is a daily observer reported survey that assesses weakness, incoordination, hypotonia (low muscle tone), hypertonia (rigidity, stiff muscle tone), and involuntary movements. Each domain was scored from 0 to 4, where 0 is no presence of the symptom, 1 is mild, 2 is moderate, 3 is severe and 4 extreme, with a total score ranging from 0 to 20.
PDCD is a heterogenous disease with neurologic, metabolic and structural abnormalities. An observer rated Global Health Assessment (GHA) was also used to assess the overall health of the patient in addition to ObsROmotor. GHA was measured each week to assess the prior 7 days using a 5-point scale (much better, better, no change, worse, much worse). GHA scores improved over time and the scores were correlated with ObsROmotor.

[3] = test system: patients with Pyruvate Dehydrogenase Complex Deficiency (PDCD); assay: Plasma BHB (ketone) levels in Phase III study of DCA in PDCD patients; type: in vivo, human
Protocol: (§2) A total of 30 (of the 34) patients in the Phase III study in PDCD patients had lab values that could be evaluated throughout the study. Of these 30, 24 were defined to be adherent to a ketogenic diet based on their BHB level at baseline to be >0.3 mM.
as §1, with “metabolizers. […]” for “metabolizers.”

[4] = test system: pediatric patients with PDCD; assay: Adverse reaction data of Phase III study and open-label extension; type: in vivo, human
Protocol: In the Phase III study, the safety of DCA was assessed in 34 pediatric patients with PDCD aged 6 months to 17 years. Patients receiving DCA were dose-stratified post-randomization according to GSTZ1 genotype to mitigate risk of peripheral neuropathy. DCA was dosed at either 12.5 mg/kg or 6.25 mg/kg divided into two equal doses approximately 12 hours apart. The dose based on GSTZ1 genotyping was done at baseline before patients initiated therapy. As noted above, this Phase III controlled study was followed by an ongoing, open-label extension study, used to assess long term safety and survival outcomes.
In the open-label extension study, patients were treated for up to 3 years (median: 1.4 years) with DCA. The adverse events observed during the open-label phase of the study were similar to those observed in the double-blind portion of the study. During the open label portion of the trial there was a report of mild peripheral neuropathy in one patient who later withdrew from the study for a family relocation. This occurred after 18 months and was considered possibly drug related. DCA induced peripheral neuropathy has been identified as reversible upon therapy discontinuation.

[5] = test system: pediatric patients with PDCD; assay: Survival study of DCA-treated patients versus untreated natural history cohort; type: in vivo, human; conditions: primary endpoint, matched on age and sex; n=28 vs n=28; p=0.0273
Protocol: Efficacy was assessed in a second study by comparing overall survival in pediatric patients with PDCD treated with DCA (n=28) with an untreated natural history cohort of pediatric patients with genetically confirmed PDCD (n=28).

[6] = test system: patients with Pyruvate Dehydrogenase Complex Deficiency (PDCD); assay: Plasma lactate levels in Phase III study of DCA in PDCD patients; type: in vivo, human
Protocol: as §2
as §1, with “metabolizers. […]” for “metabolizers.”
Plasma lactate levels were evaluated as a key biomarker in PDCD. Lactate is a universal marker of disease activity in PDCD, and its elevation is a direct result of the fundamental metabolic deficit. Patients with PDCD have chronically elevated levels of lactate due to decreased PDC activity. Lowering of plasma lactate with use of DCA is considered a biomarker of its activation of PDC.

[7] = severe patients (N=15), domain outside of motor function
[8] = Patient 01-001, DCA Open Label 1, keto ratio 4.0:1
[9] = Patient 01-001, DCA Open Label 2, keto ratio 4.0:1
[10] = Patient 01-001, DCA Open Label 3, keto ratio 4.0:1
[11] = Patient 01-001, DCA period, keto ratio 3.1:1
[12] = Patient 03-001, DCA Open Label 1, keto ratio Not Recorded
[13] = Patient 03-001, DCA Open Label 2, keto ratio 3.2:1
[14] = Patient 03-001, DCA Open Label 3, keto ratio 3.1:1
[15] = Patient 03-001, DCA period, keto ratio 4.0:1
[16] = Patient 07-003-S, DCA Open Label 1, keto ratio 0.7:1
[17] = Patient 07-003-S, DCA period, keto ratio 3.0:1
[18] = of the 24 patients adherent to the ketogenic diet
[19] = Phase III, all patients, p=0.006

Compound: O=C(O)C(Cl)Cl [DCA, Dichloroacetate]
- risk of peripheral neuropathy adverse events ([1]; EGT carriers (fast metabolizers), 25 mg/kg/day): low risk
- risk of peripheral neuropathy adverse events ([1]; EGT non-carriers (slow metabolizers), 12.5 mg/kg/day): experience the same
- patients maintaining stable disease or achieving clinically meaningful improvement (>20% reduction in ObsROmotor) ([2]; open label extension, of 34 patients): 24
- survey respondents noting improvement in cognition, verbal communication, mobility, and/or endurance ([2]; open-label office visits, 25 of the 26 respondents): 96.2%
- observers rating patients with a GHA as better or much better ([2]; open-label portion): > 80%
- patients showing improvement in motor function in at least one of the five domains ([2]; patients with more severe impairment at baseline (N=15)): 93%
- improvement of motor function in the ObsROmotor scale vs. placebo ([2]; patients with more severe impairment at baseline (N=15), p=0.066): −1.12
- number of severe patients improving: hypertonia ([2]; severe patients (N=15)): 6
- number of severe patients improving: hypotonia ([2]; severe patients (N=15)): 8
- number of severe patients improving: incoordination ([2]; severe patients (N=15)): 6
- number of severe patients improving: involuntary movement ([2]; severe patients (N=15)): 6
- number of severe patients improving: weakness ([2]; severe patients (N=15)): 6
- number of severe patients improving: fatigue [2, 7]: 7
- number of severe patients improving: sleep [2, 7]: 8
- average BHB level while on DCA ([3]; 9 patients without BHB increase, 2.04 mM not on DCA): 1.8 mM
- measures that exceeded 3.0 mM BHB while on DCA ([3]; 9 patients without BHB increase, 38% not on DCA): 24%
- average BHB level while on DCA ([3]; 15 patients that experienced an increase, 2.19 mM not on DCA): 3.27 mM
- measurements with clinically significant BHB (>3.0 mM) while on DCA ([3]; 15 patients that experienced an increase, 13% not on DCA): 62%
- increase in average BHB level ([3]; 15 patients that experienced an increase, on DCA vs not on DCA): 49%
- BHB [3, 8]: 3.19 mM
- BHB [3, 9]: 2.74 mM
- BHB [3, 10]: 4.08 mM
- BHB [3, 11]: 6.36 mM
- BHB [3, 12]: 4.41 mM
- BHB [3, 13]: 2.76 mM
- BHB [3, 14]: 2.06 mM
- BHB [3, 15]: 4.21 mM
- BHB [3, 16]: 2.38 mM
- BHB [3, 17]: 4.02 mM
- increase in the number of patients with BHB levels of 3.0 mM or higher ([3]; group experiencing increases in BHB): ~5 fold
- BHB levels greater than 4.0 while on DCA ([3]; group experiencing increases in BHB, 3% while not on DCA): 28%
- patients that did not experience a rise in ketone levels after administration of DCA [3, 18]: Nine
- patients with a rise in ketone levels after administration of DCA [3, 18]: 15
- Balance disorder ([4]; DCA (N = 34)): 1 (2.9) n (%)
- Bruxism ([4]; DCA (N = 34)): 0 n (%)
- Constipation ([4]; DCA (N = 34)): 1 (2.9) n (%)
- Diarrhea ([4]; DCA (N = 34)): 1 (2.9) n (%)
- Fatigue ([4]; DCA (N = 34)): 1 (2.9) n (%)
- Flatulence ([4]; DCA (N = 34)): 0 n (%)
- Gastrointestinal disorders (SOC) ([4]; DCA (N = 34)): 2 (5.9) n (%)
- General disorders and administration site conditions (SOC) ([4]; DCA (N = 34)): 1 (2.9) n (%)
- Insomnia ([4]; DCA (N = 34)): 0 n (%)
- Irritability ([4]; DCA (N = 34)): 0 n (%)
- Muscular weakness ([4]; DCA (N = 34)): 1 (2.9) n (%)
- Musculoskeletal and connective tissue disorders (SOC) ([4]; DCA (N = 34)): 1 (2.9) n (%)
- Nervous system disorders (SOC) ([4]; DCA (N = 34)): 1 (2.9) n (%)
- Psychiatric disorders (SOC) ([4]; DCA (N = 34)): 0 n (%)
- Salivary hypersecretion ([4]; DCA (N = 34)): 0 n (%)
- Skin and subcutaneous tissue disorders (SOC) ([4]; DCA (N = 34)): 1 (2.9) n (%)
- Syncope ([4]; DCA (N = 34)): 1 (2.9) n (%)
- Tremor ([4]; DCA (N = 34)): 1 (2.9) n (%)
- Urticaria ([4]; DCA (N = 34)): 1 (2.9) n (%)
- deaths ([4]; Phase III, 34 pediatric patients): no deaths
- most commonly reported adverse reaction: gastrointestinal disorders ([4]; n=2 of 34 DCA-treated patients): 5.9%
- patients with report of mild peripheral neuropathy ([4]; open label portion, after 18 months, considered possibly drug related): one
- multivariate risk reduction in the relative risk of death vs untreated patients [5]: 99%
- drop in lactate ([6]; 9 patients without BHB increase): 11%
- percentage of patients with normal lactate levels (2.0 mM or less) while on DCA ([6]; 9 patients without BHB increase, 51% not on DCA): 71%
- drop in lactate levels while on DCA ([6]; 15 patients with BHB increase): 20%
- percentage of patients with normal lactate levels (2.0 mM or less) while on DCA ([6]; 15 patients with BHB increase, 33% not on DCA): 73%
- Lactate [6, 8]: 1.58 mM
- Lactate [6, 9]: 2.13 mM
- Lactate [6, 10]: 1.33 mM
- Lactate [6, 11]: 1.4 mM
- Lactate [6, 12]: 1.36 mM
- Lactate [6, 13]: 1.16 mM
- Lactate [6, 14]: 1.41 mM
- Lactate [6, 15]: 1.25 mM
- Lactate [6, 16]: 0.68 mM
- Lactate [6, 17]: 1.99 mM
- difference in plasma lactate, DCA vs. placebo [6, 19]: -0.477 mM
- reduction in plasma lactate levels, DCA vs. placebo [6, 19]: 21%
- patients achieving lactate normalization while on DCA therapy ([6]; in both groups (with and without BHB increase)): > 70%
- patients on DCA achieving normal levels (≤2mmol/L) of lactate ([6]; vs. 42% on placebo, P=0.0114): 66%
